Several values for one entry are separate records, joined by “and”; a condition that tells them apart may be missing. Equal entries are not always repeated. Where two headings read alike, the source gives them in different places. Values belong to the molecule of their own block, whether it stands above or below them.
Tests used:
[1] = cited from earlier work; for % O2 Removed: Table 1, 78±3 °C, 4±1 psig, about 4 min, feedwater 58-100 ppm, initial O2 1.8-2.3 ppm; for oxygen scavenging in the test water: conclusion from Table 1
[2] = for % O2 Removed: 60 s
Procedure: The stock solution concentrations are presented in terms of weight % aqueous. The stock solutions were each 100 grams total. […] The tests were conducted at ambient temperature (23°-25° C.).
The tests were conducted at ambient temperature (23°-25° C.).

[3] = Dissolution and storage stability of hydroquinone/methoxypropylamine solutions (Example 11); type: physicochemical
Procedure: The following 25 gram solutions were prepared and sealed in glass bottles (components listed in order of addition):
Fifty (50) grams of each of the following solutions were prepared in glass bottles, sealed and placed on a shaker for two hours: […]

[4] = cited from earlier work
[5] = cited from earlier work; for % O2 Removed, 1 Minute: hydroquinone: pH 8.6, 22.5 °C, 0.94 mole/mole O2
[6] = test system: rats; details: conclusion from Table 4; cited from earlier work
[7] = hydroquinone alone in water; cited from earlier work
[8] = conclusion from Table 6; cited from earlier work
[9] = for mu-amine required to effect dissolution: added to saturated aqueous hydroquinone (10.0 g hydroquinone, 89.5 g water)
Procedure: Volumes of mu-amines required to effect dissolution were recorded and converted to weights via density.

[10] = Test for identification of mu-amines compatible with hydroquinone (Example 6); type: physicochemical; design: key: An asterisk (*) in a column indicates a positive result; details: for Step 4: Not mu-Amine / Step 4: Possible mu-Amine: 10 g amine, 10 g hydroquinone, 80 g water; for Step 4: Not mu-Amine: precipitation after 3 min stirring; for Step 4: Possible mu-Amine: no precipitate after 3 min stirring; for Step 6: Possible mu-Amine: passes unhindered through 5 micron filter
Source text: The steps of this test are as follows:
Step 1: To a 1 pint glass jar which can be equipped with a cover lid add 80.0 grams of demineralized water and 10.0 grams of the amine to be tested.
Step 2: Stir the contents of the jar for one minute, preferably via a magnetic stirrer. If the amine is a solid, stir until complete dissolution into the water is attained.
Step 4: Stir the contents of the jar for three minutes. If precipitation within the jar occurs, then the amine is not a mu-amine. If no precipitate formation within the jar is evident, the amine may possibly be a mu-amine, so proceed to Step 5.
Step 5: Seal the jar and stir vigorously for seven minutes.
Step 6: After stirring, filter the contents of the jar through a 5 micron filter paper via suction. […] If the contents of the jar pass unhindered through the filter paper, the amine may possibly be a mu-amine and Steps 7 and 8 should be performed.
Step 7: Remove a 1.0 ml aliquot from the filtration flask or receiver (i.e., an aliquot of the former jar contents) with a syringe.
Step 8: Inject the contents of the syringe into the room temperature oxygen scavenger apparatus described in Example 4 above which contains air-saturated, demineralized water and sufficient sodium hydroxide to result in a pH 9-10 range in the reaction flask. If at least 70% of the dissolved oxygen initially present in the air-saturated water is removed within one minute after injection, the amine is definitely a mu-amine. If at least 70% of the dissolved oxygen is not removed within one minute, then the amine is not a mu-amine.
Reported below in Table 7 are the results of tests using the above described procedure for various amines. An asterisk (*) in a column indicates a positive result.

[11] = Oxygen scavenging of hydroquinone/mu-amine, ambient temperature (Example 7); details: Table 8; 60 seconds, 23-25 °C, 103 ppm hydroquinone + 103 ppm mu-amine
[12] = cited from earlier work; remark: listed apart in the source
[13] = Compatibility of amines with hydroquinone in solution (description); type: physicochemical
Source text: To provide convenient single-drum treatments, it was decided to test-formulate various dioxo aromatic compounds with neutralizing amines.

[14] = Oxygen scavenging of hydroquinone/mu-amine in hot water flow system (Example 8); details: Table 10; 6.7 ppm hydroquinone + 6.7 ppm mu-amine, 78±1 °C, 3-5 psig, 240±10 s, pH 9.7
[15] = Oxygen scavenging at various concentrations and weight ratios of hydroquinone and mu-amine (Example 9)
[16] = Thermal stability of amines (description); type: physicochemical; details: of the amines tested
[17] = high pressures; cited from earlier work
[18] = hydrazine: pH 9.2, 26.5 °C, 10.5 mole/mole O2
[19] = 1.5% mu-amine, 10.0% hydroquinone (6.67:1)
[20] = 90.0% mu-amine, 10.0% hydroquinone (1:9)

Molecule: Oc1ccc(O)cc1 [hydroquinone]
- % O2 Removed [1]: 97%
- oxygen scavenging in the test water [1]: at least equivalent to, if not better than, hydrazine
- % O2 Removed ([2]; 0 methoxypropylamine, 1.0% hydroquinone): 9%
- % O2 Removed ([2]; 0 methoxypropylamine, 3.0% hydroquinone): 17%
- % O2 Removed ([2]; 0 methoxypropylamine, 6.0% hydroquinone): 27%
- % O2 Removed ([2]; 1.0% methoxypropylamine, 1.0% hydroquinone): 10%
- % O2 Removed ([2]; 1.0% methoxypropylamine, 6.0% hydroquinone): 78%
- % O2 Removed ([2]; 3.0% methoxypropylamine, 3.0% hydroquinone): 74%
- % O2 Removed ([2]; 6.0% methoxypropylamine, 1.0% hydroquinone): 17%
- % O2 Removed ([2]; 6.0% methoxypropylamine, 6.0% hydroquinone): 93%
- effect of mu-amine addition on oxygen scavenging efficacy ([2]; conclusion from Table 12): increases the oxygen scavenging efficacy
- active hydroquinone concentration attainable in stable aqueous solution ([3]; 1 to 1 with methoxypropylamine, sealed storage 12 days): up to 40%
- % O2 Removed ([4]; 1.9 ppm actives, pH 8.4, steam load 15, initial O2 8.0 ppb): 88%
- % O2 Removed ([4]; 1.9 ppm actives, pH 8.4, steam load 15, initial O2 10.0 ppb): 90%
- efficacy in treating boiler feedwater ([4]; conclusion from Tables 2 and 3): efficacious in treating boiler feedwater and compared favorably with hydrazine
- reactivity at low temperature with oxygen versus hydrazine ([5]; conclusion from Table 5): superiority of hydroquinone, as compared to hydrazine
- % O2 Removed, 1 Minute [5, 18]: 29%
- toxicity versus hydrazine [6]: significantly less toxic as compared to hydrazine
- aqueous hydroquinone solubility [7]: about 7%
- thermal stability versus hydrazine [8]: superior thermal stability
- Dissolution time ([9]; 6.3 g hydroquinone in 89.5 g demineralized water, solutions #1, #2, #3): 23 min and 19 min and 21 min
- MOPA required to dissolve hydroquinone ([9]; 10.0 g hydroquinone in neat MOPA): 12.5 grams

Molecule: Oc1cccc(O)c1 [resorcinol]
- % O2 Removed [1]: 0%
- oxygen scavenging in the test water [1]: ineffective

Molecule: NCCCCCCN [Hexamethylenediamine, reference compound]
- Step 4: Not mu-Amine [10]: *

Molecule: NCCO [Monoethanolamine]
- % O2 Removed [11]: 75%
- Step 4: Possible mu-Amine [10]: *
- Step 6: Possible mu-Amine [10]: *

Molecule: NN [hydrazine]
- % O2 Removed ([4]; control run 1: 1.6 ppm, pH 8.8, steam load 11, initial O2 13.0 ppb): 69%
- % O2 Removed ([4]; control run 2: 1.1 ppm, pH 9.4, steam load 15, initial O2 4.0 ppb): 50%
- % O2 Removed ([4]; control run 3: 1.2 ppm, pH 8.6, steam load 15, initial O2 6.0 ppb): 60%
- % O2 Removed ([4]; control run 4: 1.0 ppm, pH 8.8, steam load 15, initial O2 5.8 ppb): 55%
- % O2 Removed ([4]; control run 5: 0.8 ppm, pH 9.4, steam load 11, initial O2 3.5 ppb): 31%
- % O2 Removed ([4]; control run 6: 1.6 ppm, pH 9.6, steam load 14, initial O2 4.0 ppb): 30%
- % O2 Removed, 5 Minutes [5, 18]: 2%
- % O2 Removed, 1 Minute [5, 18]: 1%
- pH of maximum oxygen scavenging efficacy ([12]; in solution, Cohn and Powell 1954): 10.0-10.5
- rate of reaction with oxygen ([12]; low temperatures such as room temperature): very slow

- compatibility with hydroquinone in solution [13]: precipitated out of solution
- Step 4: Not mu-Amine [10]: *
Molecule: C1COCCN1 [Morpholine, reference compound]

- Step 4: Possible mu-Amine [10]: *
- Step 6: Possible mu-Amine [10]: *
Molecule: CC(O)CN (stereo not drawn) [Monoisopropanolamine]
- % O2 Removed [14]: 98%

- lowest practical MOPA concentration in the mixture ([3]; aqueous 10% hydroquinone): 2%
- thermal stability [16]: most thermally stable
- Step 4: Possible mu-Amine [10]: *
- Step 6: Possible mu-Amine [10]: *
- mu-amine required to effect dissolution [9]: 1.7 grams
Molecule: COCCCN [Methoxypropylamine]
- % O2 Removed At 60 Seconds [15, 19]: 96%
- % O2 Removed At 60 Seconds ([15]; 2.0% mu-amine, 10.0% hydroquinone (5:1)): 96%
- % O2 Removed At 60 Seconds ([15]; 3.0% mu-amine, 10.0% hydroquinone (3.33:1)): 96%
- % O2 Removed At 60 Seconds ([15]; 15.0% mu-amine, 15.0% hydroquinone (1:1)): 95%
- % O2 Removed At 60 Seconds ([15]; 20.0% mu-amine, 20.0% hydroquinone (1:1)): 98%
- % O2 Removed At 60 Seconds ([15]; 30.0% mu-amine, 30.0% hydroquinone (1:1)): 98%
- % O2 Removed At 60 Seconds ([15]; 40.0% mu-amine, 40.0% hydroquinone (1:1)): 94%
- % O2 Removed At 60 Seconds [15, 20]: 94%
- % O2 Removed [14]: 99%

- Step 4: Possible mu-Amine [10]: *
- Step 6: Possible mu-Amine [10]: *
Molecule: CC(O)CNCC(C)O (stereo not drawn) [Diisopropanolamine]
- % O2 Removed [11]: 86%

- Step 4: Possible mu-Amine [10]: *
- Step 6: Possible mu-Amine [10]: *
- mu-amine required to effect dissolution [9]: 1.7 grams
Molecule: CN(C)CCCN [Dimethylaminopropylamine]
- % O2 Removed [11]: 76%
- % O2 Removed At 60 Seconds [15, 19]: 94%
- % O2 Removed At 60 Seconds ([15]; 30.0% mu-amine, 10.0% hydroquinone (1:3)): 99%
- % O2 Removed At 60 Seconds [15, 20]: 98%

Molecule: Nc1ccccc1N [o-phenylenediamine]
- % O2 Removed [1]: 10%
- oxygen scavenging in the test water [1]: ineffective

- Step 4: Possible mu-Amine [10]: *
- Step 6: Possible mu-Amine [10]: *
Molecule: Dimethyl(iso)propanolamine
- % O2 Removed [11]: 73%

Molecule: NCCN [Ethylenediamine]
- % O2 Removed [11]: 85%
- Step 4: Possible mu-Amine [10]: *
- Step 6: Possible mu-Amine [10]: *

Molecule: NC1CCCCC1 [Cyclohexylamine, reference compound]
- compatibility with hydroquinone in solution [13]: precipitated out of solution
- Step 4: Not mu-Amine [10]: *

Molecule: O=S([O-])[O-].[Na+].[Na+] [sodium sulfite]
- decomposition in the boiler [17]: decomposes in the boiler to form sulfur dioxide and hydrogen sulfide

- Step 4: Possible mu-Amine [10]: *
- Step 6: Possible mu-Amine [10]: *
Molecule: NCCNCCNCCN [Triethylenetetramine]
- % O2 Removed [11]: 89%

- compatibility with hydroquinone in solution [13]: insoluble mass
- Step 4: Not mu-Amine [10]: *
Molecule: CC(C)(C)N [tert-Butylamine, reference compound]

Molecule: C1CN2CCN1CC2 [Triethylenediamine, reference compound]
- Step 4: Not mu-Amine [10]: *

- compatibility with hydroquinone in solution [13]: compatible with hydroquinone in solution
- Step 4: Possible mu-Amine [10]: *
- Step 6: Possible mu-Amine [10]: *
Molecule: CCC(C)N (stereo not drawn) [sec-Butylamine]
- % O2 Removed [11]: 74%

Molecule: Nc1ccc(N)cc1 [p-phenylenediamine]
- % O2 Removed [1]: 35%
- oxygen scavenging in the test water [1]: ineffective
